In PubChem BioAssay (NCI):
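GI50: concentration for 50% inhibition of growth. The concentration for full growth arrest is given as TGI.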

Key:
Test in all cases: inhibition of tumour cell growth, NCI panel, 384-well format
NCI-H460 NSCLC = system: NCI-H460 NSCLC
NCI-H23 lung = system: NCI-H23 lung
HCC-2998 colon = system: HCC-2998 colon
LOX IMVI melanoma = system: LOX IMVI melanoma
SK-MEL-5 melanoma = system: SK-MEL-5 melanoma
UACC-257 melanoma = system: UACC-257 melanoma
RXF 393 renal = system: RXF 393 renal
MDA-MB-435 melanoma = system: MDA-MB-435 melanoma
PC-3 prostate = system: PC-3 prostate
HS 578T breast = system: HS 578T breast
MALME-3M melanoma = system: MALME-3M melanoma
CCRF-CEM leukemia = system: CCRF-CEM leukemia
UACC-62 melanoma = system: UACC-62 melanoma
RPMI-8226 leukemia = system: RPMI-8226 leukemia
A549 NSCLC = system: A549 NSCLC
SW-620 colon = system: SW-620 colon
MDA-MB-468 breast = system: MDA-MB-468 breast
OVCAR-8 ovarian = system: OVCAR-8 ovarian
NCI-H322M lung = system: NCI-H322M lung
NCI/ADR-RES ovarian = system: NCI/ADR-RES ovarian
IGROV1 ovarian = system: IGROV1 ovarian
SR leukemia = system: SR leukemia
UO-31 renal = system: UO-31 renal
CAKI-1 renal = system: CAKI-1 renal
OVCAR-3 ovarian = system: OVCAR-3 ovarian
NCI-H226 lung = system: NCI-H226 lung
SK-MEL-2 melanoma = system: SK-MEL-2 melanoma
SF-268 CNS = system: SF-268 CNS
DU-145 prostate = system: DU-145 prostate
MOLT-4 leukemia = system: MOLT-4 leukemia
SNB-75 CNS = system: SNB-75 CNS
EKVX NSCLC = system: EKVX NSCLC
MCF7 breast = system: MCF7 breast
MDA-MB-231 breast = system: MDA-MB-231 breast
HCT-116 colon = system: HCT-116 colon
KM12 colon = system: KM12 colon
HCT-15 colon = system: HCT-15 colon
U251 glioblastoma = system: U251 glioblastoma
HL-60(TB) leukemia = system: HL-60(TB) leukemia
SNB-19 CNS = system: SNB-19 CNS
OVCAR-4 ovarian = system: OVCAR-4 ovarian
ACHN renal = system: ACHN renal
M14 melanoma = system: M14 melanoma
OVCAR-5 ovarian = system: OVCAR-5 ovarian
HOP-92 NSCLC = system: HOP-92 NSCLC
786-0 renal = system: 786-0 renal
COLO 205 colon = system: COLO 205 colon

CNCc1ccccc1-c1csc([C@@H](C)Nc2nc(C)nc3cc(OC)c(OC)cc23)c1
GI50 (NCI-H460 NSCLC): 1580 nM
TGI (NCI-H460 NSCLC): 2930 nM
GI50 (NCI-H23 lung): 1250 nM
TGI (NCI-H23 lung): 2540 nM
GI50 (HCC-2998 colon): 240 nM
TGI (HCC-2998 colon): 1070 nM
GI50 (LOX IMVI melanoma): 1650 nM
TGI (LOX IMVI melanoma): 3010 nM
GI50 (SK-MEL-5 melanoma): 1150 nM
TGI (SK-MEL-5 melanoma): 2370 nM
GI50 (UACC-257 melanoma): 275 nM
TGI (UACC-257 melanoma): 810 nM
GI50 (RXF 393 renal): 414 nM
TGI (RXF 393 renal): 1670 nM
GI50 (MDA-MB-435 melanoma): 1570 nM
TGI (MDA-MB-435 melanoma): 2910 nM
GI50 (PC-3 prostate): 1530 nM
TGI (PC-3 prostate): 2970 nM
GI50 (HS 578T breast): 302 nM
TGI (HS 578T breast): 2110 nM
GI50 (MALME-3M melanoma): 1560 nM
TGI (MALME-3M melanoma): 2900 nM
GI50 (CCRF-CEM leukemia): 1070 nM
TGI (CCRF-CEM leukemia): 2260 nM
GI50 (UACC-62 melanoma): 1700 nM
TGI (UACC-62 melanoma): 3080 nM
GI50 (RPMI-8226 leukemia): 643 nM
TGI (RPMI-8226 leukemia): 1980 nM
GI50 (A549 NSCLC): 1670 nM
TGI (A549 NSCLC): 3040 nM
GI50 (SW-620 colon): 1360 nM
TGI (SW-620 colon): 2640 nM
GI50 (MDA-MB-468 breast): 287 nM
TGI (MDA-MB-468 breast): 1560 nM
GI50 (OVCAR-8 ovarian): 1500 nM
TGI (OVCAR-8 ovarian): 2830 nM
GI50 (NCI-H322M lung): 1210 nM
TGI (NCI-H322M lung): 2480 nM
GI50 (NCI/ADR-RES ovarian): 1620 nM
TGI (NCI/ADR-RES ovarian): 2990 nM
GI50 (IGROV1 ovarian): 1310 nM
TGI (IGROV1 ovarian): 2590 nM
GI50 (SR leukemia): 676 nM
TGI (SR leukemia): 1940 nM
GI50 (UO-31 renal): 1520 nM
TGI (UO-31 renal): 2850 nM
GI50 (CAKI-1 renal): 1050 nM
TGI (CAKI-1 renal): 2220 nM
GI50 (OVCAR-3 ovarian): 1260 nM
TGI (OVCAR-3 ovarian): 2520 nM
GI50 (NCI-H226 lung): 1250 nM
TGI (NCI-H226 lung): 2580 nM
GI50 (SK-MEL-2 melanoma): 1320 nM
TGI (SK-MEL-2 melanoma): 2590 nM
GI50 (SF-268 CNS): 1610 nM
TGI (SF-268 CNS): 2960 nM
GI50 (DU-145 prostate): 1710 nM
TGI (DU-145 prostate): 3200 nM
GI50 (MOLT-4 leukemia): 1180 nM
TGI (MOLT-4 leukemia): 2400 nM
GI50 (SNB-75 CNS): 1300 nM
TGI (SNB-75 CNS): 2570 nM
GI50 (EKVX NSCLC): 1100 nM
TGI (EKVX NSCLC): 2320 nM
GI50 (MCF7 breast): 1290 nM
TGI (MCF7 breast): 2570 nM
GI50 (MDA-MB-231 breast): 1720 nM
TGI (MDA-MB-231 breast): 3100 nM
GI50 (HCT-116 colon): 1290 nM
TGI (HCT-116 colon): 2560 nM
GI50 (KM12 colon): 914 nM
TGI (KM12 colon): 2140 nM
GI50 (HCT-15 colon): 1500 nM
TGI (HCT-15 colon): 2830 nM
GI50 (U251 glioblastoma): 1440 nM
TGI (U251 glioblastoma): 2750 nM
GI50 (HL-60(TB) leukemia): 1080 nM
TGI (HL-60(TB) leukemia): 2270 nM
GI50 (SNB-19 CNS): 1450 nM
TGI (SNB-19 CNS): 2770 nM
GI50 (OVCAR-4 ovarian): 1140 nM
TGI (OVCAR-4 ovarian): 2380 nM
GI50 (ACHN renal): 1510 nM
TGI (ACHN renal): 2840 nM
GI50 (M14 melanoma): 1560 nM
TGI (M14 melanoma): 2900 nM
GI50 (OVCAR-5 ovarian): 1510 nM
TGI (OVCAR-5 ovarian): 2860 nM
GI50 (HOP-92 NSCLC): 171 nM
TGI (HOP-92 NSCLC): 1290 nM
GI50 (786-0 renal): 1240 nM
TGI (786-0 renal): 2500 nM
GI50 (COLO 205 colon): 1590 nM
TGI (COLO 205 colon): 2940 nM

Cc1cc(Nc2ccc(NC(=O)c3ccc(Nc4ccnc5ccccc45)cc3)cc2)nc(N)n1
GI50 (NCI-H460 NSCLC): 1670 nM
TGI (NCI-H460 NSCLC): 3150 nM
GI50 (NCI-H23 lung): 1010 nM
TGI (NCI-H23 lung): 2840 nM
GI50 (HCC-2998 colon): 541 nM
TGI (HCC-2998 colon): 1000 nM
GI50 (LOX IMVI melanoma): 166 nM
TGI (LOX IMVI melanoma): 308 nM
GI50 (SK-MEL-5 melanoma): 1340 nM
TGI (SK-MEL-5 melanoma): 2630 nM
GI50 (UACC-257 melanoma): 556 nM
TGI (UACC-257 melanoma): 1560 nM
GI50 (RXF 393 renal): 750 nM
TGI (RXF 393 renal): 1840 nM
GI50 (MDA-MB-435 melanoma): 1850 nM
TGI (MDA-MB-435 melanoma): 3260 nM
GI50 (PC-3 prostate): 894 nM
TGI (PC-3 prostate): 2250 nM
GI50 (HS 578T breast): 1050 nM
TGI (HS 578T breast): 2240 nM
GI50 (MALME-3M melanoma): 1000 nM
TGI (MALME-3M melanoma): 2230 nM
GI50 (CCRF-CEM leukemia): 191 nM
TGI (CCRF-CEM leukemia): 335 nM
GI50 (UACC-62 melanoma): 719 nM
TGI (UACC-62 melanoma): 1940 nM
GI50 (RPMI-8226 leukemia): 3110 nM
TGI (RPMI-8226 leukemia): 7870 nM
GI50 (A549 NSCLC): 1870 nM
TGI (A549 NSCLC): 3400 nM
GI50 (SW-620 colon): 250 nM
TGI (SW-620 colon): 580 nM
GI50 (MDA-MB-468 breast): 196 nM
TGI (MDA-MB-468 breast): 339 nM
GI50 (OVCAR-8 ovarian): 831 nM
TGI (OVCAR-8 ovarian): 2100 nM
GI50 (NCI-H322M lung): 418 nM
TGI (NCI-H322M lung): 1260 nM
GI50 (NCI/ADR-RES ovarian): > 100000 nM
TGI (NCI/ADR-RES ovarian): > 100000 nM
GI50 (IGROV1 ovarian): 4970 nM
TGI (IGROV1 ovarian): 9370 nM
GI50 (SR leukemia): 172 nM
TGI (SR leukemia): 313 nM
GI50 (UO-31 renal): 33800 nM
TGI (UO-31 renal): > 100000 nM
GI50 (CAKI-1 renal): 2960 nM
TGI (CAKI-1 renal): 8450 nM
GI50 (OVCAR-3 ovarian): 189 nM
TGI (OVCAR-3 ovarian): 333 nM
GI50 (NCI-H226 lung): 625 nM
TGI (NCI-H226 lung): 1210 nM
GI50 (SK-MEL-2 melanoma): 199 nM
TGI (SK-MEL-2 melanoma): 386 nM
GI50 (SF-268 CNS): 732 nM
TGI (SF-268 CNS): 1820 nM
GI50 (DU-145 prostate): 1600 nM
TGI (DU-145 prostate): 2980 nM
GI50 (MOLT-4 leukemia): 203 nM
TGI (MOLT-4 leukemia): 347 nM
GI50 (SNB-75 CNS): 2400 nM
TGI (SNB-75 CNS): 4700 nM
GI50 (EKVX NSCLC): 1230 nM
TGI (EKVX NSCLC): 2670 nM
GI50 (MCF7 breast): 254 nM
TGI (MCF7 breast): 618 nM
GI50 (MDA-MB-231 breast): 275 nM
TGI (MDA-MB-231 breast): 737 nM
GI50 (HCT-116 colon): 200 nM
TGI (HCT-116 colon): 413 nM
GI50 (KM12 colon): 193 nM
TGI (KM12 colon): 355 nM
GI50 (HCT-15 colon): 3870 nM
TGI (HCT-15 colon): 13800 nM
GI50 (U251 glioblastoma): 195 nM
TGI (U251 glioblastoma): 340 nM
GI50 (HL-60(TB) leukemia): 603 nM
TGI (HL-60(TB) leukemia): 1060 nM
GI50 (SNB-19 CNS): 1240 nM
TGI (SNB-19 CNS): 2510 nM
GI50 (OVCAR-4 ovarian): 521 nM
TGI (OVCAR-4 ovarian): 957 nM
GI50 (ACHN renal): 11200 nM
TGI (ACHN renal): 31000 nM
GI50 (M14 melanoma): 1550 nM
TGI (M14 melanoma): 2920 nM
GI50 (OVCAR-5 ovarian): 1850 nM
TGI (OVCAR-5 ovarian): 3740 nM
GI50 (HOP-92 NSCLC): 539 nM
TGI (HOP-92 NSCLC): 1520 nM
GI50 (786-0 renal): 872 nM
TGI (786-0 renal): 2240 nM
GI50 (COLO 205 colon): 206 nM
TGI (COLO 205 colon): 352 nM
